# Data from ChEMBL document CHEMBL3885881, “DrugMatrix”.
# Species on record: Rattus norvegicus
# Type: toxicity, organism-based, Sprague-Dawley
# Settings: in vivo, po, route oral GAVAGE, […]; for ABSOLUTE EOSINOPHIL / ABSOLUTE LYMPHOCYTE / ABSOLUTE MONOCYTE / ABSOLUTE SEGMENTED NEUTROPHIL / BASOPHIL / EOSINOPHIL / ERYTHROCYTE COUNT / HEMATOCRIT / HEMOGLOBIN / LEUKOCYTE COUNT / LYMPHOCYTE / MEAN CORPUSCULAR HEMOGLOBIN / MEAN CORPUSCULAR HEMOGLOBIN CONCENTRATION / MEAN CORPUSCULAR VOLUME / MONOCYTE / NEUTROPHIL / NUCLEATED RED BLOOD CELLS / PLATELET COUNT: tissue Blood; for ALANINE AMINOTRANSFERASE / ALKALINE PHOSPHATASE / ASPARTATE AMINOTRANSFERASE / BLOOD UREA NITROGEN / CARBON DIOXIDE / CHLORIDE / CHOLESTEROL / CREATINE PHOSPHOKINASE / CREATININE / GLUCOSE / LACTATE DEHYDROGENASE / LIPASE / PHOSPHORUS / POTASSIUM / SODIUM / TOTAL BILIRUBIN / TOTAL PROTEIN / URIC ACID: tissue Plasma
# [1] = 0 mg/kg, 6 h, vehicle control, dose level Control, time 0.25 day
# [2] = 0 mg/kg, 24 h, vehicle control, dose level Control, time 1 day
# [3] = 100 mg/kg, 6 h, dose level Low, time 0.25 day
# Description: DrugMatrix - Regimen: Single
smiles,measurement,setting,value
Cc1ccc(C)c(OCCCC(C)(C)C(=O)O)c1 [GEMFIBROZIL],ABSOLUTE EOSINOPHIL,[1],0 CELLS/uL
same,ABSOLUTE LYMPHOCYTE,[1],8631 CELLS/uL
same,ABSOLUTE MONOCYTE,[1],171.17 CELLS/uL
same,ABSOLUTE SEGMENTED NEUTROPHIL,[1],1214.5 CELLS/uL
same,BASOPHIL,[1],0%
same,EOSINOPHIL,[1],0%
same,ERYTHROCYTE COUNT,[1],5.42 x10E6/uL
same,HEMATOCRIT,[1],34.7%
same,HEMOGLOBIN,[1],13.67 G/DL
same,LEUKOCYTE COUNT,[1],10.02 x10E3/uL
same,LYMPHOCYTE,[1],86.17%
same,MEAN CORPUSCULAR HEMOGLOBIN,[1],25.27 pg
same,MEAN CORPUSCULAR HEMOGLOBIN CONCENTRATION,[1],39.42 G/DL
same,MEAN CORPUSCULAR VOLUME,[1],64.12 fL
same,MONOCYTE,[1],1.67%
same,NEUTROPHIL,[1],12.17%
same,NUCLEATED RED BLOOD CELLS,[1],0 /100WBC
same,PLATELET COUNT,[1],1050 x10E3/uL
same,ALANINE AMINOTRANSFERASE,[1],61 u/L
same,ALKALINE PHOSPHATASE,[1],312.5 u/L
same,ASPARTATE AMINOTRANSFERASE,[1],117.5 u/L
same,BLOOD UREA NITROGEN,[1],8.67 mg/dL
same,CARBON DIOXIDE,[1],26.33 mmol/L
same,CHLORIDE,[1],100.5 MEQ/L
same,CHOLESTEROL,[1],72 mg/dL
same,CREATINE PHOSPHOKINASE,[1],283.33 u/L
same,CREATININE,[1],0.28 mg/dL
same,GLUCOSE,[1],172 mg/dL
same,LACTATE DEHYDROGENASE,[1],95.33 u/L
same,LIPASE,[1],10.17 u/L
same,PHOSPHORUS,[1],9.9 mg/dL
same,POTASSIUM,[1],5.75 MEQ/L
same,SODIUM,[1],142.4 MEQ/L
same,TOTAL BILIRUBIN,[1],0.3 mg/dL
same,TOTAL PROTEIN,[1],5.43 G/DL
same,URIC ACID,[1],0.73 mg/dL
same,ABSOLUTE EOSINOPHIL,[2],90.83 CELLS/uL
same,ABSOLUTE LYMPHOCYTE,[2],14725.17 CELLS/uL
same,ABSOLUTE MONOCYTE,[2],220 CELLS/uL
same,ABSOLUTE SEGMENTED NEUTROPHIL,[2],1080.67 CELLS/uL
same,BASOPHIL,[2],0%
same,EOSINOPHIL,[2],0.67%
same,ERYTHROCYTE COUNT,[2],5.3 x10E6/uL
same,HEMATOCRIT,[2],33.4%
same,HEMOGLOBIN,[2],13.4 G/DL
same,LEUKOCYTE COUNT,[2],16.12 x10E3/uL
same,LYMPHOCYTE,[2],91.17%
same,MEAN CORPUSCULAR HEMOGLOBIN,[2],25.3 pg
same,MEAN CORPUSCULAR HEMOGLOBIN CONCENTRATION,[2],40.12 G/DL
same,MEAN CORPUSCULAR VOLUME,[2],63.05 fL
same,MONOCYTE,[2],1.5%
same,NEUTROPHIL,[2],6.67%
same,NUCLEATED RED BLOOD CELLS,[2],0 /100WBC
same,PLATELET COUNT,[2],1062 x10E3/uL
same,ALANINE AMINOTRANSFERASE,[2],69 u/L
same,ALKALINE PHOSPHATASE,[2],269 u/L
same,ASPARTATE AMINOTRANSFERASE,[2],83.67 u/L
same,BLOOD UREA NITROGEN,[2],14 mg/dL
same,CARBON DIOXIDE,[2],29 mmol/L
same,CHLORIDE,[2],100.83 MEQ/L
same,CHOLESTEROL,[2],66.67 mg/dL
same,CREATINE PHOSPHOKINASE,[2],355 u/L
same,CREATININE,[2],0.18 mg/dL
same,GLUCOSE,[2],161.33 mg/dL
same,LACTATE DEHYDROGENASE,[2],123.33 u/L
same,LIPASE,[2],10.67 u/L
same,PHOSPHORUS,[2],8.83 mg/dL
same,POTASSIUM,[2],6.06 MEQ/L
same,SODIUM,[2],142.45 MEQ/L
same,TOTAL BILIRUBIN,[2],0.2 mg/dL
same,TOTAL PROTEIN,[2],5.72 G/DL
same,URIC ACID,[2],1.27 mg/dL
same,ABSOLUTE EOSINOPHIL,[3],97 CELLS/uL
same,ABSOLUTE LYMPHOCYTE,[3],13743.17 CELLS/uL
same,ABSOLUTE MONOCYTE,[3],354.83 CELLS/uL
same,ABSOLUTE SEGMENTED NEUTROPHIL,[3],1355 CELLS/uL
same,BASOPHIL,[3],0%
same,EOSINOPHIL,[3],0.67%
same,ERYTHROCYTE COUNT,[3],5.46 x10E6/uL
same,HEMATOCRIT,[3],35.92%
same,HEMOGLOBIN,[3],13.93 G/DL
same,LEUKOCYTE COUNT,[3],15.55 x10E3/uL
same,LYMPHOCYTE,[3],88.33%
same,MEAN CORPUSCULAR HEMOGLOBIN,[3],25.62 pg
same,MEAN CORPUSCULAR HEMOGLOBIN CONCENTRATION,[3],38.85 G/DL
same,MEAN CORPUSCULAR VOLUME,[3],65.98 fL
same,MONOCYTE,[3],2.17%
same,NEUTROPHIL,[3],8.83%
same,NUCLEATED RED BLOOD CELLS,[3],0 /100WBC
same,PLATELET COUNT,[3],1082.83 x10E3/uL
same,ALANINE AMINOTRANSFERASE,[3],47.5 u/L
same,ALKALINE PHOSPHATASE,[3],284.67 u/L
same,ASPARTATE AMINOTRANSFERASE,[3],80.83 u/L
same,BLOOD UREA NITROGEN,[3],8 mg/dL
same,CARBON DIOXIDE,[3],26.67 mmol/L
same,CHLORIDE,[3],100.17 MEQ/L
same,CHOLESTEROL,[3],76 mg/dL
same,CREATINE PHOSPHOKINASE,[3],275.33 u/L
same,CREATININE,[3],0.13 mg/dL
same,GLUCOSE,[3],141.33 mg/dL
same,LACTATE DEHYDROGENASE,[3],112.33 u/L
same,LIPASE,[3],11 u/L
same,PHOSPHORUS,[3],11.7 mg/dL
same,POTASSIUM,[3],6.32 MEQ/L
same,SODIUM,[3],141.92 MEQ/L
same,TOTAL BILIRUBIN,[3],0.37 mg/dL
same,TOTAL PROTEIN,[3],5.85 G/DL
same,URIC ACID,[3],1.2 mg/dL
